From US6608065B1, “Use of cGMP phosphodiesterase inhibitors in methods to treat female sexual dysfunction” (ICOS Corporation, priority 1995, dated 2003) come the findings set out here.

By melting point is commonly meant the temperature of the solid-liquid transition.

`C[C@H]1C(=O)N2[C@H](c3ccc4c(c3)OCO4)c3[nH]c4ccccc4c3C[C@@H]2C(=O)N1C` [Compound B, (3S, 6R, 12aR)-2,3,6,7,12,12a-hexahydro-2,3-dimethyl-6-(3,4-methylenedioxyphenyl)-pyrazino[2′, 1′:6,1]pyrido[3,4-b]indole-1,4-dione] registered a melting point of 307 to 309 °C.

`C[C@@H]1NC(=O)[C@H]2Cc3c([nH]c4ccccc34)[C@@H](c3ccc4c(c3)OCO4)N2C1=O` [Example 3, (3S, 6R,12aR)-2,3,6,7,12,12a-Hexahydro-3-methyl-6-(3,4-methylenedioxyphenyl)-pyrazino[2′, 1′:6,1]pyrido[3,4-b]indole-1,4-dione] gave a melting point of 319 to 321 °C.
